Literature values in paper PMC2866172 (Journal of medicinal chemistry, 2010).

Tested on: MTB enoyl-ACP reductase InhA
Settings: on MTB enoyl-ACP reductase InhA; cited from earlier work

NC(=O)C1=CN([C@@H]2O[C@H](COP(=O)(O)OP(=O)(O)OC[C@H]3O[C@@H](n4cnc5c(N)ncnc54)[C@H](O)[C@@H]3O)[C@@H](O)[C@H]2O)C=C[C@@H]1C(=O)c1ccncc1 [INH-NAD adduct]
Residence time: 60 min
